Paper PMC10298926, “Biophysical Characterization of the Binding Mechanism between the MATH Domain of SPOP and Its Physiological Partners” (International Journal of Molecular Sciences, 2023)
Where a SMILES comes first, the peptide text is derived from it. Where no end group is shown, it is not given here. The star is where a group is joined. Dansyl = CN(C)c1cccc2c(S(=O)(=O)*)cccc12

How the values were obtained:
SPOP MATH WT [1] = biological target: T1, SPOP MATH WT (Homo sapiens, UniProt O43791); test: Stopped-flow displacement; assay type: binding; conditions: preincubated complex (both 8 µM) mixed with 50 μM nondansylated peptide, 298 K, average of five single traces
Procedure: (§1) To infer the mechanism of recognition of SPOP MATH, we resorted to performing time-resolved kinetic experiments. SPOP MATH was rapidly mixed with increasing concentrations of dansylated peptides (from 2 to 10 µM for Puc and MacroH2A, and from 2 to 40 µM for PTEN) in a stopped-flow apparatus at 298 K. The binding traces obtained by monitoring the time-resolved fluorescence were satisfactorily fitted to a single exponential equation, allowing calculating the observed rate constants kobs at different peptide concentrations. We then plotted the kobs values over the concentration of dansylated peptide and fitted the data to a simple linear function equation: kobs=kon Peptide+koff where kobs is the observed rate constant; kon and koff are the microscopic association and dissociation rate constants, respectively (Figure 2). The slope and y-axis intercept represent the microscopic association and dissociation rate constant, respectively. To minimize the error associated with the indirect measurement of the dissociation rate constant, we carried out displacement experiments to determine the koff values. The displacement experiments were designed by mixing the preformed complex SPOP MATH-dansylated peptides with a high excess of nondansylated peptide, as described in the Section 4. […] On the basis of these observations, it is possible to conclude that, in the case of binding to MacroH2A and PTEN, there is the presence of an additional step, which escapes detection by stopped-flow experiments and is likely to be negligible in the case of Puc. […] We note that such a case closely resembles the presence of a so-called burst phase, which is frequently observed in protein-folding studies.
Microscopic dissociation rate constants (koff) were directly measured by performing displacement experiments on an Applied Photophysics DX-17MV stopped-flow apparatus (Applied Photophysics). […] The samples were excited at 280 nm and fluorescence emission was collected by using a 330 ± 30 nm bandpass filter. […] The observed rate constants were calculated from the average of five single traces. […]
Target sequence in this assay (O43791 1-182): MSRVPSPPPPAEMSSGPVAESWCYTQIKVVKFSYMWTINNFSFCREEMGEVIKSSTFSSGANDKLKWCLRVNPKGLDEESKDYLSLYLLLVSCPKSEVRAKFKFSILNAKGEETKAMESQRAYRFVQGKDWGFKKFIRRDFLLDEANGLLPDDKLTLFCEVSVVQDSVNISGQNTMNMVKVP

SPOP MATH WT [2] = biological target: T1, SPOP MATH WT; test: Stopped-flow pseudo-first-order binding kinetics; conditions: 298 K; for kon: stopped-flow, 2 µM MATH domain, dansylated peptide 2 to 10 µM (Puc, MacroH2A) or 2 to 40 µM (PTEN), 50 mM sodium-HEPES, pH 7.2 (for ionic strength series), five traces averaged, slope of kobs vs peptide
Procedure: as §1
Binding kinetic experiments were performed on an Applied Photophysics DX-17MV stopped-flow apparatus (Applied Photophysics, Leatherhead, UK). Pseudo-first-order binding experiments were performed by mixing a constant concentration (2 μM) of MATH domain with increasing dansylated peptides concentrations, from 2 to 10 μM of Puc and MacroH2A, and 2 to 40 µM of PTEN. The samples were excited at 280 nm, and the emission fluorescence was recorded by using a bandpass 320 nm cutoff filter. The experiments were performed at 298 K. For ionic strength dependence with Puc and MacroH2A, the buffers used were 50 mM sodium-HEPES, pH 7.2, supplemented with 50 mM, 100 mM, 200 mM, or 500 mM of sodium chloride (NaCl). For the PTEN binding salt dependence experiments, lower concentrations of salt were added for the previous buffer list mentioned (10 mM, 25 mM, and 50 mM of sodium chloride). For each acquisition, five traces were collected, averaged, and satisfactorily fitted to a single exponential equation.

SPOP MATH WT [3] = biological target: T1, SPOP MATH WT; test: Equilibrium binding, FRET (Trp to dansyl), fluorescence titration; conditions: read-out: Equilibrium KD; dansylated peptide 0 to 40 µM; constant SPOP MATH WT (2 µM in methods, 1 µM in results); excitation 280 nm, emission 300-400 nm; 298 K; hyperbolic fit
Excerpt: The MATH domain of SPOP exerts its functions by specifically recognizing different substrates and, therefore, acting as an adaptor module between SPOP and its physiological ligands. In an effort to provide a complete characterization of SPOP MATH binding mechanisms, we investigated the recognition of three peptides mimicking a specific region of the substrates Puc (region 96–105), MacroH2A (region 166–179), and PTEN (region 354–368). […] Moreover, the three-dimensional structure of SPOP MATH in complexes with each of the peptides has been previously reported (3HQH, 3HQL, and 4OV1 PDB entries, respectively). Similar to previous work on other protein–protein recognition modules, we employed peptides carrying a covalently attached N-terminal dansyl fluorophore. Binding was then followed by measuring the FRET (Forster resonance energy transfer) between the three tryptophan residues of the SPOP MATH domain (donor) and the dansyl group of the peptides (acceptor).
To address the equilibrium binding affinity of SPOP MATH and its substrates, a fixed concentration of the protein (1 µM) was challenged with increasing peptide concentrations. In all cases, the fluorescence-monitored transition returned a hyperbolic behavior as described in the Section 4, which allowed estimating a dissociation constant of 1.4 ± 0.4 µM, 1.6 ± 0.2 µM, and 5.5 ± 0.5 µM for Puc, MacroH2A, and PTEN, respectively (Figure 2). These values appear partly consistent with what was previously reported by Zhuang et al. by using surface plasmon resonance. […]
Equilibrium binding experiments were performed on a Fluoromax-4 single-photon-counting spectrofluorometer (Jobin-Yvon, Newark, NJ, USA). The SPOP MATH domain was excited at 280 nm and emission spectra were recorded between 300 and 400 nm, at increasing dansylated peptide concentrations. […]

[4] = biological target: engineered MATH domain of SPOP (Speckle-type POZ protein), residues 1-182, cysteine residues substituted to serine (UniProt O43791); test: stopped-flow fluorescence displacement; preincubated complex of MATH domain and dansylated peptide (both 8 µM) mixed with an excess of nondansylated peptide (50 µM); 298 K; same buffer as the binding experiments; single exponential decay gives koff
[5] = biological target: engineered MATH domain of SPOP (Speckle-type POZ protein), residues 1-182, cysteine residues substituted to serine (UniProt O43791); test: stopped-flow fluorescence binding kinetics + other: stopped-flow fluorescence displacement; KD calculated by combining kon of the pseudo-first-order plots with koff of the displacement experiments; 298 K
[6] = biological target: engineered MATH domain of SPOP (Speckle-type POZ protein), residues 1-182, cysteine residues substituted to serine (UniProt O43791); test: stopped-flow fluorescence binding kinetics; pseudo-first-order; 2 µM MATH mixed with dansylated peptide, 2 to 10 µM Puc and MacroH2A, 2 to 40 µM PTEN; excitation 280 nm; 298 K; kobs against peptide concentration fitted to a line, kon from the slope
[7] = biological target: engineered MATH domain of SPOP (Speckle-type POZ protein), residues 1-182, cysteine residues substituted to serine (UniProt O43791); test: other fluorescence titration; equilibrium; FRET from the tryptophans of SPOP MATH (excited at 280 nm, emission 300-400 nm) to the dansyl of the peptide; MATH at constant concentration (2 µM in the methods, 1 µM in the results), dansylated peptide 0 to 40 µM; 298 K; hyperbolic fit

| Molecule | koff [4] | Kd [5] | kon [6] | Kd [7] | koff (SPOP MATH WT [1]) | kon (SPOP MATH WT [2]) | Kd (SPOP MATH WT [3]) | Kd (SPOP MATH WT [2]; read-out: Kinetics KD, WT, from kon (pseudo-first-order) and koff (displacement)) |
| --- | --- | --- | --- | --- | --- | --- | --- | --- |
| C[C@H](NC(=O)[C@H](C)NC(=O)[C@H](CCCCN)NS(=O)(=O)c1cccc2c(N(C)C)cccc12)C(=O)N[C@@H](CO)C(=O)N[C@@H](C)C(=O)N[C@@H](CC(=O)O)C(=O)N[C@@H](CO)C(=O)N[C@H](C(=O)N[C@H](C(=O)N[C@@H](CCC(=O)O)C(=O)NCC(=O)N[C@H](C(=O)N1CCC[C@H]1C(=O)N[C@@H](C)C(=O)N[C@@H](CC(=O)O)C(=O)O)[C@@H](C)O)[C@@H](C)O)[C@@H](C)O [MacroH2A] (HELM PEPTIDE1{[CN(C)c1cccc2c(S(=O)(=O)[*:2])cccc12].K.A.A.S.A.D.S.T.T.E.G.T.P.A.D}$$$$V2.0) | – | – | – | – | 21 ± 2 s⁻¹ | 3e+06 ± 2e+06 M⁻¹ s⁻¹ | 1.6 ± 0.2 µM | – |
| CC(C)[C@H](NC(=O)[C@H](CO)NC(=O)[C@@H](NC(=O)[C@H](CO)NC(=O)[C@H](CO)NC(=O)[C@H](CO)NC(=O)[C@H](C)NC(=O)[C@H](CCC(=O)O)NC(=O)[C@@H]1CCCN1C(=O)[C@H](CC(N)=O)NC(=O)[C@H](CO)NC(=O)[C@@H]1CCCN1S(=O)(=O)c1cccc2c(N(C)C)cccc12)[C@@H](C)O)C(=O)N[C@H](C(=O)N1CCC[C@H]1C(=O)N[C@@H](CC(=O)O)C(=O)O)[C@@H](C)O [PTEN] (HELM PEPTIDE1{[CN(C)c1cccc2c(S(=O)(=O)[*:2])cccc12].P.S.N.P.E.A.S.S.S.T.S.V.T.P.D}$$$$V2.0) | – | – | – | – | 113 ± 1 s⁻¹ | 5.5e+06 ± 500000 M⁻¹ s⁻¹ | 4 ± 1 µM | 20.8 ± 0.4 µM |

Now from value to molecule, other results behind:

| koff [4] | Kd [5] | kon [6] | Kd [7] | Molecule | koff (SPOP MATH WT [1]) | kon (SPOP MATH WT [2]) | Kd (SPOP MATH WT [3]) | Kd (SPOP MATH WT [2]; read-out: Kinetics KD, WT, from kon (pseudo-first-order) and koff (displacement)) |
| --- | --- | --- | --- | --- | --- | --- | --- | --- |
| 21 s⁻¹ | 7.8 µM | 3e+06 M⁻¹ s⁻¹ | – | Dansyl-KAASADSTTEGTPAD [dansylated peptide mimicking MacroH2A (region 166-179)] | – | – | – | – |
| 113 s⁻¹ | – | 5.5e+06 M⁻¹ s⁻¹ | 5.5 µM | Dansyl-PSNPEASSSTSVTPD [dansylated peptide mimicking PTEN (region 354-368)] | – | – | – | – |
